≈ marks a conversion by molar mass, not a printed value. Entries after “also recorded” stand apart in the source; their conditions may differ.
Key:
[1] = LogP, partition coefficient in 1-octanol; type: physicochemical; details: 1-octanol partition
Caspase-1 [2] = test: iGLuc luminescence assay of ATP-induced Caspase-1 activation in J774 iGLuc cells; type: cell-based, mouse; details: for Caspase-1 cleavage (luminescence): ATP 5 mM, N=3
Procedure: Caspase-1 is the enzyme at the core of the inflammasome complex and is an important danger response signal and mediator of RPE cell death in AMD. […] Importantly, there was some difference between individual compounds in terms of the dose response curve, emphasizing the need to test each compound (with unique R group(s)) individually.
To obtain the data set forth in FIGS. 64-73, an iGLuc assay was conducted (modified from Bartok et al. iGLuc: a luciferase-based inflammasome and protease activity reporter. Nature Methods 2013; 10(2):147-54). Briefly, 100,000 iGLuc cells per well were plated in a 96 well plate overnight. The next morning, media is aspirated from the plate and replaced with 75 μL of serum free DMEM with drugs (NRTIs or modified NRTIs) for 30 min. After 30 minutes of drug exposure, 20 mM ATP (25 μL) is added for a final concentration of 5 mM. 50 μL of media from each well is collected and 50 μL of coelenterazine 4.4 μM is added to each sample, and luminescence is read immediately.

Caspase-1 [3] = test: Alu RNA-induced Caspase-1 activation, western blot, primary human RPE cells; type: cell-based; details: for Alu RNA-induced Caspase-1 activation/cleavage: concentration not given
From the text: The bottom row in FIG. 5 is a vinculin loading control.

[4] = system: GFP-expressing lentivirus; test: GFP-expressing lentivirus transduction/replication assay in HeLa cells; type: cell-based; details: for lentivirus replication (GFP-positive cells per field): 10 μM, 72 hours, MOI 20
Procedure: All drugs were added at a concentration of 10 μM. Cells were imaged for GFP expression 72 hours after addition of lentivirus. GFP-positive cells per field of view were recorded. n=4-11, error bars S.E.M. Reverse transcription of lentivirus is essential for GFP expression; modified NRTIs should not block reverse transcriptase, whereas NRTIs are known to block reverse transcriptase.
The present disclosure further provides the results of additional experiments in FIG. 21-FIG. 23.

[5] = system: human LINE-1 retrotransposon; test: EGFP cell culture L1 retrotransposition assay in HeLa cells; type: cell-based; details: 7 days after transfection, flow cytometry
Procedure: These findings pave way for the rational re-design and improvement of nucleoside analogs as novel therapeutics. The enhanced green fluorescent protein (EGFP) cell culture L1 retrotransposition assay was performed in HeLa cells. […] Transfected cells were selected in puromycin. 7 days after transfection, cells that underwent retrotransposition (EGFP-positive) were assayed by flow cytometry. Cells were gated based on background fluorescence of plasmid JM111, which has two point mutations in L1-ORF1 that abolish retrotransposition. Data are normalized with RPS set to 1.

IL-1 beta = test: LPS/ATP-induced IL-1 beta activation in Raji TK− and TK+ cells, western blot; type: cell-based
From the text: (§1) To determine whether LPS/ATP-induced inflammasome activation can be inhibited without RT inhibition, the present inventors utilized thymidine kinase-deficient (Raji/TK^−) and -expressing (Raji/TK^+) cells (Balzarini et al., 1989).

[6] = system: Raji TK^+ and Raji TK^− cells; test: Phosphorylation of AZT to AZT-triphosphate in Raji TK+ / TK− cells, LC-MS; type: in vitro ADME
From the text: as §1
FIG. 50 is a standard curve of AZT-TP standards (black circle). […] FIG. 50 is representative of two experiments.

wild-type mice [7] = test: pAlu-induced RPE degeneration, mouse model of dry AMD; type: in vivo
Procedure: Mouse studies were conducted to study treatment with NRTIs or derivatives.

wild-type mice [8] = test: Laser-induced choroidal neovascularization (CNV; wet AMD) in wild-type mice; details: N=16
human P2X7 receptor = biological target: T1, human P2X7 receptor (Homo sapiens, UniProt Q99572); details: HEK293 stably expressing human P2X7; concentration not given
T1 sequence (Q99572 1-595): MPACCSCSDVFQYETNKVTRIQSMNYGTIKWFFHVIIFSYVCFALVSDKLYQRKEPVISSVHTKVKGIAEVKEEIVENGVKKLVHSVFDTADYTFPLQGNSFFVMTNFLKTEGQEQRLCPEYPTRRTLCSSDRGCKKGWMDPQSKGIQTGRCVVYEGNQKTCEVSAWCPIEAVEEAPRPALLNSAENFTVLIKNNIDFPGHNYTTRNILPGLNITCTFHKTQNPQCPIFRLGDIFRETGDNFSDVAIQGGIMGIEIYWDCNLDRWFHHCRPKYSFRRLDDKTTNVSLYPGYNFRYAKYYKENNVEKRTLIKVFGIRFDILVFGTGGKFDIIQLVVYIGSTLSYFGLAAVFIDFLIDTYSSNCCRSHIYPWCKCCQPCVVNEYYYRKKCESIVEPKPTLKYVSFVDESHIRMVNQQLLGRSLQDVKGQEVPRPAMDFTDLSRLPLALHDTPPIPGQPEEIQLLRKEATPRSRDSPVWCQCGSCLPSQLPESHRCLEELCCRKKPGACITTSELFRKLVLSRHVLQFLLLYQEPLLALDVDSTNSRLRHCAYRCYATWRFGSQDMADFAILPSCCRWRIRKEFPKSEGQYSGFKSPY

Solubility in water = type: physicochemical; details: aqueous buffer; Water pH 7.2 at 37° C.
Caspase-1 [9] = test: Iron (III) ammonium citrate-induced Caspase-1 activation, western blot, primary human RPE cells; type: cell-based; details: 25 μM, Fe(III) ammonium citrate (100 μM)
From the text: Caspase-1 activation (p20 subunit) in primary human retinal pigment epithelium (RPE) cells in the presence of iron (III) ammonium citrate was studied.
Caspase-1 activation (p10 subunit) in primary human RPE cells in the presence of iron (III) ammonium citrate was studied.
Alu RNA is a toxic endogenous retroelement that accumulates in and causes death of the RPE in patients with dry AMD. […] FAC activates Caspase-1 via an Alu RNA intermediate, and induces NLRP3-dependent RPE degeneration (Gelfand et al. Cell Reports 2015). Fe(III) ammonium citrate (100 μM)-induced Caspase-1 activation in primary human RPE cells, monitored by western blotting, is reduced by TM-3TC (25 μM), d4T-ene (25 μM), 2Me-d4T (25 μM), Me-AZT (25-100 μM), and 2Me-AZT (25 μM). N=3-4.

wild-type mice [10] = test: Poly IC-induced RPE degeneration in mice; type: in vivo, mouse; details: intravitreous; measured 7 days after poly IC
mice [11] = test: Amyloid beta-induced RPE degeneration in mice; type: in vivo, mouse; details: intraperitoneal 25 mg/kg days 1 to 6; read day 7
mice [12] = test: Iron-induced RPE degeneration in mice; type: in vivo, mouse; details: intraperitoneal 25 mg/kg days 1 to 6; read day 7
mtDNA = test: Relative quantity of mtDNA, quantitative PCR, primary human RPE cells; details: 50 μM; four days; relative to DMSO
JR5558 mice = test: Spontaneous CNV in JR5558 mice, fluorescein angiography dye leakage; type: in vivo, mouse
From the text: JR5558 mice develop spontaneous choroidal neovascularization (CNV) and are an animal model of wet/neovascular age-related macular degeneration (AMD). The activity of the CNV lesions can be monitored using fluorescein angiography to assess the degree of dye leakage from the lesions, as is done in humans with this disease. FIGS. 81 and 82 are representative images from two JR5558 mice (N=8). The first and third row of FIGS. 81 and 82 show time dependent dye leakage from pre-existing CNV lesions in the left eye (first row) and right eye (third row) of a first and second JR5558 mouse, respectively.

wild-type mice [13] = test: Alu RNA-induced RPE degeneration, mouse model of dry AMD
[14] = intraperitoneal 25 mg/kg twice daily

| Compound | logP [1] | Caspase-1 cleavage (luminescence) (Caspase-1 [2]; drug 1 nM-100 μM) | Alu RNA-induced Caspase-1 activation/cleavage (Caspase-1 [3]) | lentivirus replication (GFP-positive cells per field) [4] | L1 retrotransposition (EGFP-positive cells) [5] | solubility (Solubility in water) | pAlu-induced RPE degeneration (wild-type mice [7]; [14]) | poly IC-induced RPE degeneration (wild-type mice [10]) | Iron-induced RPE degeneration (mice [12]) | relative quantity of mtDNA (mtDNA depletion) (mtDNA) | further results |
| --- | --- | --- | --- | --- | --- | --- | --- | --- | --- | --- | --- |
| Cc1cn([C@H]2C[C@H](N=[N+]=[N-])[C@@H](CO)O2)c(=O)[nH]c1=O [AZT, 3′-azido-2′,3′-dideoxythymidine, reference compound] | -0.41 | reduces Caspase-1 cleavage in a dose-dependent fashion | block Caspase-1 cleavage | blocked lentivirus GFP expression | blocked L1 retrotransposition | – | – | – | – | – | Alu RNA-induced Caspase-1 maturation (Caspase-1 [3]; 50-100 uM, 24 hours after Alu administration): blocked; IL-1 beta activation by LPS/ATP (IL-1 beta; Raji TK+ cells): blocks IL-1 beta activation; IL-1 beta activation by LPS/ATP (IL-1 beta; Raji TK− cells): blocks IL-1 beta activation; formation of AZT-triphosphate (AZT-TP) ([6]; Raji TK+ cells): produced AZT-TP; formation of AZT-triphosphate (AZT-TP) ([6]; Raji TK− cells): not detectable; pAlu-induced RPE degeneration (wild-type mice [7]; intraperitoneal administration, dose not stated): blocked RPE degeneration; laser injury-induced CNV volume (wild-type mice [8]; intravitreous 0.55 nmol): reduced laser injury-induced CNV volume; P2X7-dependent YO-PRO-1 uptake induced by bzATP (human P2X7 receptor): inhibited P2X7-dependent uptake |
| COCC1C=C[C@H](n2cc(C)c(=O)n(C)c2=O)O1 (stereo partly drawn) [Kamuvudine 2Me-d4T, 1-[(2R)-5-(methoxymethyl)-2,5-dihydrofuran-2-yl]-3,5-dimethyl-1,2,3,4-tetrahydropyrimidine-2,4-dione] | 0.63 | – | – | do not block lentivirus replication | no effect on L1 activity | 10000 µg/mL (≈ 39.6 mM) | restored to healthy RPE morphology/intercellular junctions | blocks this degeneration | blocked the development of RPE degeneration | do not exhibit mtDNA depletion | iron-induced Caspase-1 activation (Caspase-1 [9]): reduced; iron-induced Caspase-1 activation (Caspase-1 [9]; listed as 2me-d4T): blocked iron-induced Caspase-1 activation; Amyloid beta-induced RPE degeneration (mice [11]): blocked the development of RPE degeneration |
| COC[C@@H]1O[C@H](n2ccc(N(C)C)nc2=O)CS1 [Kamuvudine 3Me-3TC, 4-(dimethylamino)-1-[(2R,5S)-2-(methoxymethyl)-1,3-oxathiolan-5-yl]-1,2-dihydropyrimidin-2-one] | 0.09 | reduces Caspase-1 cleavage in a dose-dependent fashion | – | do not block lentivirus replication | no effect on L1 activity | 7000 µg/mL (≈ 25.8 mM) | protects against RPE degeneration | – | – | do not reduce mtDNA | Alu RNA induced Caspase-1 activation (Caspase-1 [3]; 25-100 μM (25 and 100 μM), listed as TM-3TC): blocked Alu-induced Caspase-1 activation; also recorded: reduced; iron-induced Caspase-1 activation (Caspase-1 [9]; listed as TM-3TC): blocked iron-induced Caspase-1 activation; also recorded: reduced; CNV lesion leakage compared to 3TC (JR5558 mice; 62.5 ng vs 125 ng 3TC): greater reduction in CNV lesion leakage; activity (dye leakage) of pre-existing CNV lesions (JR5558 mice; single intravitreous 62.5 ng, 3 days after administration): suppress the activity of pre-existing CNV lesions; Alu RNA-induced RPE degeneration (wild-type mice [13]; intraperitoneal 25 mg/kg, twice daily for 6 days): protects against RPE degeneration |
| COC[C@@H]1C=C[C@H](n2cc(C)c(=O)[nH]c2=O)O1 [Me-d4T, 1-[(2R,5S)-5-(methoxymethyl)-2,5-dihydrofuran-2-yl]-5-methyl-1,2,3,4-tetrahydropyrimidine-2,4-dione] | 0.41 | – | blocks Caspase-1 activation | do not block lentivirus replication | no effect on L1 activity | 30000 µg/mL (≈ 126 mM) | – | blocks this degeneration | blocked the development of RPE degeneration | do not exhibit mtDNA depletion | Caspase-1 cleavage (luminescence) (Caspase-1 [2]; drug 100 μM): reduces Caspase-1 cleavage in a dose-dependent fashion; reduction of inflammasome activation (Caspase-1 [2]; ATP (5 mM), mouse J774 iGLuc cells, FIGS. 70-73): about 70%; replication of GFP-expressing lentivirus ([4]; FIG. 22, concentration not given): does not block lentivirus replication; Alu-induced RPE degeneration (wild-type mice [13]; intraperitoneal injection, dose not stated): prevents Alu-induced RPE degeneration; choroidal neovascularization (CNV) volume (wild-type mice [8]; intravitreous 0.14 nmol, day 7): reduced choroidal neovascularization (CNV) volume |

From patent publication US11219623B2, “Inflammasome inhibition for the treatment of Parkinson's disease, Alzheimer's disease and multiple sclerosis” (University of Kentucky Research Foundation, priority 2015, dated 2022)
